Here are results for 1 substance from US5912372A, “Water-miscible esters of monoglycerides having antimicrobial activity” (priority 1997, dated 1999).

This assay deals with human respiratory syncytial virus (RSV). Description: RSV inhibition assay in LLC-MK2 cells, PBS as diluent. The assay is classed as cell-based. To be noted: compound alone. How it is done: Additional studies were performed to determine the synergistic anti-viral effects of diacetyltartaric acids esters of monoglycerides, lipophilic monoglycerides (MG) and carrageenan. These studies were carried out using […] and PBS as the diluent. The RSV inhibition assay semi-quantitativelydetermines the ability of a test material (antibody or other bioactive compound) to inhibit the infection of monkey kidney cells (LLC-MK2) by human respiratory syncytial virus (RSV). Infected cells are identified using an immunoperoxidase method and counted. The method is performed in a microtiter format and is described briefly below:
LLC-MK2 rhesus monkey kidney cells were obtained from the American Type Culture Collection and were cultured in Eagles modified essential medium (EMEM) supplemented with 10% fetal bovine serum. For RSV inhibition assays, LLC-MK2 cells at 5,000 cells/well were seeded into fibronectin treated microtiter plates and incubated for 3-4 days prior to use in the infectivity reduction assay. […] Plates were then rinsed as above with PBS/CEA, and the number of stained RSV-infected cells (IC) per well determined using an inverted microscope. The number of ICs' in triplicate wells was compared with the number of ICs' of virus control wells (mean of 9) and the percent inhibition (PI) calculated; [PI=1.0-[Mean ICs' per well of test sample/Mean ICs' per well of virus control]. […]

Consider Carrageenan, for which the “Enhancement Factor” value came out at 1.0.
